The structures appear in SMILES notation.

A word on the Dmax: it is the largest share of the target that was removed. Usually DC50 stands for the concentration at which degradation of the target reaches its halfway point. Lower therefore signals degradation at low concentration.

The assay deals with T1, WT LRRK2 (Homo sapiens, UniProt Q5S007).
T1 construct: endogenous in cells; host or cells: HEK293 (endogenous LRRK2 gene knock-in tagged with HiBit; stably expressing CMV-driven firefly luciferase)
In words: LRRK2 HiBit degradation assay (Nano-Glo Dual Luciferase) in HEK293 cells with HiBit-tagged endogenous LRRK2. The class given is cell-based. The settings on record: for Dmax: maximal degradation. The method, boiled down: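 HEK293 cells carrying endogenous C-terminally HiBit-tagged LRRK2 and stably expressing CMV-driven firefly luciferase were treated for 24 h at 37° C with an 11-point 1:3 series from a 1 μM final top concentration. Nano-Glo Dual Luciferase read LRRK2-HiBit against firefly signal. Alamar Blue gave viability, and signals were normalized to DMSO median before curve fitting.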

Setting [1] is: HEK293, Table 2, HiBit-tagged LRRK2 in HEK293 cells, 24 hours treatment.
The mark [2] stands for this setting: HEK293, Table 3, comparison with direct comparators.
[3] abbreviates: Table 2, HiBit-tagged LRRK2 in HEK293 cells, 24 hours treatment, starting concentration 1 μM.
[4] abbreviates: Table 3, comparison with direct comparators, HiBit-tagged LRRK2 in HEK293 cells, 24 hours treatment.

T1 sequence (Q5S007 whole entry): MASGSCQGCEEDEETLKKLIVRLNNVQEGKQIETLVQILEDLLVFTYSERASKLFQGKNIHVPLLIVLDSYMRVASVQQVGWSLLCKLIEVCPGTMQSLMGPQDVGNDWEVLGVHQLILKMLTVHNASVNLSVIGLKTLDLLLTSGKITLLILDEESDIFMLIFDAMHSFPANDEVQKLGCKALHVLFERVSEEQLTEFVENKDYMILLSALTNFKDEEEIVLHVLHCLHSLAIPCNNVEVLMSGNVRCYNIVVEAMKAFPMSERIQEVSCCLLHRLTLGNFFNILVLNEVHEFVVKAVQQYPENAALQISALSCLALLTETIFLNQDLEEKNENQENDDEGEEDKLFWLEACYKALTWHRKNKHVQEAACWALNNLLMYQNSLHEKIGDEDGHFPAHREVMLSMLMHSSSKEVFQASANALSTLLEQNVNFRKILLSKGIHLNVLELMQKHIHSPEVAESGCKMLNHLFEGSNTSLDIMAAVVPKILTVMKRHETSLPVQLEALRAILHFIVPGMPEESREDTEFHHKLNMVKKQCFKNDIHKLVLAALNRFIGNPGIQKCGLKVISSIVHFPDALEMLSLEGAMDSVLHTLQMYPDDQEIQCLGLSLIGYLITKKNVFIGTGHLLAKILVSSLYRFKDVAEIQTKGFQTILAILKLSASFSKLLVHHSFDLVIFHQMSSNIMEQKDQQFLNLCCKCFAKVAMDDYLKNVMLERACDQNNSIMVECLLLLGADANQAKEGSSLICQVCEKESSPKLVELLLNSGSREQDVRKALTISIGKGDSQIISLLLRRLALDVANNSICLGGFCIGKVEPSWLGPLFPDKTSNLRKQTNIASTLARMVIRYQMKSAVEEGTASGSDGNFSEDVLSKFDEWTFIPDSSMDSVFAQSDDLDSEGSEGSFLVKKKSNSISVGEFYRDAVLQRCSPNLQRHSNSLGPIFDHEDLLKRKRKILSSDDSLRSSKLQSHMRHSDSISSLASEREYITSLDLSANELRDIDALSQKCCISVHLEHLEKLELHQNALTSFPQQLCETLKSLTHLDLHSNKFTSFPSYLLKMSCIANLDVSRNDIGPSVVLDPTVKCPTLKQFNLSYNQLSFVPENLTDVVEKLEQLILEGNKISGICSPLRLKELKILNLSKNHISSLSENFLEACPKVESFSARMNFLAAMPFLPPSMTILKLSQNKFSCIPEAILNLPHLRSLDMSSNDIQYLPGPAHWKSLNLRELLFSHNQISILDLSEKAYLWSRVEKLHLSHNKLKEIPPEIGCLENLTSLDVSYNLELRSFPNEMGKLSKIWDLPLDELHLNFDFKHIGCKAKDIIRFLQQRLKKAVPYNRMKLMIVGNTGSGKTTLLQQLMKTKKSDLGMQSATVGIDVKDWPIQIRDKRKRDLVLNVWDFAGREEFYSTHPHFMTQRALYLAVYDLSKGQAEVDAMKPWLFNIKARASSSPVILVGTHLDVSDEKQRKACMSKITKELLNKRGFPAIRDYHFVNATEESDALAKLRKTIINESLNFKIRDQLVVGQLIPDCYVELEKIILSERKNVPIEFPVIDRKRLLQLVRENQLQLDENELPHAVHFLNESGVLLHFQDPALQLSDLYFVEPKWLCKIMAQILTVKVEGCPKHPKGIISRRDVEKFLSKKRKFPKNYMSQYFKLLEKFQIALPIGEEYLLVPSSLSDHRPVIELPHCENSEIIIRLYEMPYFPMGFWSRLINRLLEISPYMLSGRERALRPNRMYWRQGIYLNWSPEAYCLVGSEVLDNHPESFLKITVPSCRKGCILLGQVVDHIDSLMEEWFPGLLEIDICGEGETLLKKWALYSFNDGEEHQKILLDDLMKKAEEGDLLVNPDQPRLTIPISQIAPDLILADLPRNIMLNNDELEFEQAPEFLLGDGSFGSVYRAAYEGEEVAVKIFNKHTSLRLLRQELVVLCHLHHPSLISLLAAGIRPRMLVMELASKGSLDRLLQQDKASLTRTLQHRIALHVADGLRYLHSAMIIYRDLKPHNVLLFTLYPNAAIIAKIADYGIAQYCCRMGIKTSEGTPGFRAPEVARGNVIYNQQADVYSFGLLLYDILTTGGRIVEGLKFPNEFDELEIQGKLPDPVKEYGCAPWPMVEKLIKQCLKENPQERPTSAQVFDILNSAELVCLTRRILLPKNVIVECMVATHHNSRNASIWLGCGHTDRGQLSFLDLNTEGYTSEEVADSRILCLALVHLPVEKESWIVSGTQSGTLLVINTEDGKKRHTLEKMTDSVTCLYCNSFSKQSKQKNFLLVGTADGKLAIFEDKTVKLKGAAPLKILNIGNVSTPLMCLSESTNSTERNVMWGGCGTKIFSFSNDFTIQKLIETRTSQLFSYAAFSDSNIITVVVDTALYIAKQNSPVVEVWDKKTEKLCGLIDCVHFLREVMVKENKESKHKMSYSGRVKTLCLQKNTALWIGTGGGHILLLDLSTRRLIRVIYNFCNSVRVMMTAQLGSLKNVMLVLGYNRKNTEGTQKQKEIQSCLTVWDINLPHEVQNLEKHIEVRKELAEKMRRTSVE

For `CC1(Oc2ccc3[nH]nc(-c4cc(N5CCC(CN6CCN(CC7CCN(c8cccc9c8ncn9C8CCC(=O)NC8=O)CC7)CC6(C)C)CC5)ncn4)c3c2)CC1` (centres unmarked) [Compound 69, 3-{4-[4-({3,3-dimethyl-4-[(1-{6-[5-(1-methylcyclopropoxy)-1H-indazol-3-yl]pyrimidin-4-yl}piperidin-4-yl)methyl]piperazin-1-yl}methyl)piperidin-1-yl]-1H-1,3-benzodiazol-1-yl}piperidine-2,6-dione], the maximal degradation (Dmax) under setting [1] was 50% and the Dmax under setting [2] was found to be 50%. Besides, the DC50 by setting is: under setting [3], 5 nM; under setting [4], 5 nM.
For the molecule `CC1(Oc2ccc3[nH]nc(-c4cc(N5CCC(CN6CCN(CC7CCN(c8cccc9c8ncn9C8CCC(=O)NC8=O)CC7)CC6)CC5)ncn4)c3c2)CC1` (centres unmarked) [Compound 70, 3-{4-[4-({4-[(1-{6-[5-(1-methylcyclopropoxy)-1H-indazol-3-yl]pyrimidin-4-yl}piperidin-4-yl)methyl]piperazin-1-yl}methyl)piperidin-1-yl]-1H-1,3-benzodiazol-1-yl}piperidine-2,6-dione], the Dmax was found to be 33% under setting [1] and 33% under setting [2]. Further, the DC50 was determined as 20 nM under setting [3] and 20 nM under setting [4].

Values taken from patent US12589156B2, “Benzimidazole and benzimidazolone based protac compounds for the targeted degradation of leucine rich repeat kinase 2 (LRRK2)” (Arvinas Operations, Inc., priority 2023, dated 2026).
